Patent publication US20240269298A1, “PHOSPHONYL DERIVATIVE, AND COMPOSITION AND PHARMACEUTICAL APPLICATION THEREOF” (XIZANG HAISCO PHARMACEUTICAL CO., LTD., priority 2021, published 2024)
pIC50: −log10 of the molar value. Where two headings read alike, the source gives them in different places.

Experiments:
[1] = system: NCI-H1975 (EGFR-L858R-T790M) cells; experiment: Inhibitory activity on proliferation of NCI-H1975 (EGFR-L858R-T790M) cells (CTG, 72 h); type: cell-based; conditions: Homo sapiens
How it was run: (§1)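 Cells plated at 1000/well (NCI-H1975, RPMI1640+10% FBS) or 3000/well (A431, DMEM+10% FBS), dosed next day with compounds (0.1% DMSO final) for 72 h at 37 °C, 5% CO2. Viability by CTG luminescence, normalised to vehicle control; IC50 from nonlinear-regression dose-survival curves.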

[2] = system: A431 (EGFR-WT) cells; experiment: Inhibitory activity on proliferation of A431 (EGFR-WT) cells (CTG, 72 h); type: cell-based; conditions: Homo sapiens, A-431
How it was run: as §1

[3] = read-out: IC50 (value in brackets)

SMILES | pIC50 ([1]; read-out: IC50 (class symbol)) | pIC50 [1, 3] | pIC50 [2]
COc1cc(N2CCN(CC3CCN(c4ccc5c(c4)C(=O)N(C4CCC(=O)NC4=O)C5=O)CC3)CC2)c(-c2cnn(C)c2)cc1Nc1ncc(Cl)c(Nc2ccc(C3CC3)cc2P(C)(C)=O)n1 (stereo not drawn) [Compound 126, 5-(4-((4-(4-((5-chloro-4-((4-cyclopropyl-2-(dimethylphosphoryl)phenyl)amino)pyrimidin-2-yl)amino)-5-methoxy-2-(1-methyl-1H-pyrazol-4-yl)phenyl)piperazin-1-yl)methyl)piperidin-1-yl)-2-(2,6-dioxopiperidin-3-yl)isoindoline-1,3-dione] | > 7.00 | 7.41 | ≤ 5.00
COc1cc(N2CCN(C3CCC4(CC3)CCN(c3ccc5c(c3)C(=O)N(C3CCC(=O)NC3=O)C5=O)CC4)CC2)c(-c2cnn(C)c2)cc1Nc1ncc(Br)c(Nc2ccc(-c3ccccc3)cc2P(C)(C)=O)n1 (stereo not drawn) [Compound 85, 5-(9-(4-(4-((5-bromo-4-((3-(dimethylphosphoryl)-[1,1′-biphenyl]-4-yl)amino)pyrimidin-2-yl)amino)-5-methoxy-2-(1-methyl-1H-pyrazol-4-yl)phenyl)piperazin-1-yl)-3-azaspiro [5.5]undecan-3-yl)-2-(2,6-dioxopiperidin-3-yl)isoindoline-1,3-dione] | > 7.00 | 7.11 | ≤ 5.00
COc1cc(N2CCN(CC3CCN(c4ccc5c(c4)C(=O)N(C4CCC(=O)NC4=O)C5=O)CC3)CC2)c(-c2cnn(C)c2)cc1Nc1ncc(Br)c(Nc2ccc(C3CC3)cc2P(C)(C)=O)n1 (stereo not drawn) [Compound 125, 5-(4-((4-(4-((5-bromo-4-((4-cyclopropyl-2-(dimethylphosphoryl)phenyl)amino)pyrimidin-2-yl)amino)-5-methoxy-2-(1-methyl-1H-pyrazol-4-yl)phenyl)piperazin-1-yl)methyl)piperidin-1-yl)-2-(2,6-dioxopiperidin-3-yl)isoindoline-1,3-dione] | > 7.00 | 7.64 | ≤ 5.00
COc1cc(N2CCC(CN3CCN(c4ccc5c(c4)CN(C4CCC(=O)NC4=O)C5=O)CC3)CC2)c(-c2cnn(C)c2)cc1Nc1ncc(Cl)c(Nc2ccc(-c3ccccc3)cc2P(C)(C)=O)n1 (stereo not drawn) [Compound 105, 3-(5-(4-((1-(4-((5-chloro-4-((3-(dimethylphosphoryl)-[1,1′-biphenyl]-4-yl)amino)pyrimidin-2-yl)amino)-5-methoxy-2-(1-methyl-1H-pyrazol-4-yl)phenyl)piperidin-4-yl)methyl)piperazin-1-yl)-1-oxoisoindolin-2-yl)piperidine-2,6-dione] | > 7.00 | 7.24 | ≤ 5.00
COc1cc(N2CCC(N3CCN(CC4CCN(c5ccc6c(c5)C(=O)N(C5CCC(=O)NC5=O)C6=O)C4)CC3)CC2)c(-c2cnn(C)c2)cc1Nc1ncc(Br)c(Nc2ccc3nccnc3c2P(C)(C)=O)n1 (stereo not drawn) [Compound 30, 5-(3-((4-(1-(4-((5-bromo-4-((5-(dimethylphosphoryl)quinoxalin-6-yl)amino)pyrimidin-2-yl)amino)-5-methoxy-2-(1-methyl-1H-pyrazol-4-yl)phenyl)piperidin-4-yl)piperazin-1-yl)methyl)pyrrolidin-1l-yl)-2-(2,6-dioxopiperidin-3-yl)isoindoline-1,3-dione] | > 7.00 | 7.92 | ≤ 5.00
CCn1cc(-c2cc(Nc3ncc(Cl)c(Nc4ccc(-c5ccccc5)cc4P(C)(C)=O)n3)c(OC)cc2N2CCC(CN3CCN(c4ccc5c(c4)C(=O)N(C4CCC(=O)NC4=O)C5=O)CC3)CC2)cn1 (stereo not drawn) [Compound 110, 5-(4-((1-(4-((5-chloro-4-((3-(dimethylphosphoryl)-[1,1′-biphenyl]-4-yl)amino)pyrimidin-2-yl)amino)-2-(1-ethyl-1H-pyrazol-4-yl)-5-methoxyphenyl)piperidin-4-yl)methyl)piperazin-1-yl)-2-(2,6-dioxopiperidin-3-yl)isoindoline-1,3-dione] | 6.30 to 7.00 | 6.63 | ≤ 5.00
COc1cc(N2CCC(C3CCN(CC4CCN(c5ccc6c(c5)C(=O)N(C5CCC(=O)NC5=O)C6=O)CC4)CC3)CC2)c(-c2cnn(C)c2)cc1Nc1ncc(Br)c(Nc2ccc(-c3ccccc3)cc2P(C)(C)=O)n1 (stereo not drawn) [Compound 36, 5-(4-((1′-(4-((5-bromo-4-((3-(dimethylphosphoryl)-[1,1′-biphenyl]-4-yl)amino)pyrimidin-2-yl)amino)-5-methoxy-2-(1-methyl-1H-pyrazol-4-yl)phenyl)-[4,4′-bipiperidin]-1-yl)methyl)piperidin-1-yl)-2-(2,6-dioxopiperidin-3-yl)isoindoline-1,3-dione] | 6.30 to 7.00 | 6.78 | ≤ 5.00
COc1cc(N2CCC3(CC2)CC(N2CCN(c4ccc5c(c4)C(=O)N(C4CCC(=O)NC4=O)C5=O)CC2)C3)c(-c2cnn(C)c2)cc1Nc1ncc(Br)c(Nc2ccc(-c3ccccc3)cc2P(C)(C)=O)n1 (stereo not drawn) [Compound 83, 5-(4-(7-(4-((5-bromo-4-((3-(dimethylphosphoryl)-[1,1′-biphenyl]-4-yl)amino)pyrimidin-2-yl)amino)-5-methoxy-2-(1-methyl-1H-pyrazol-4-yl)phenyl)-7-azaspiro[3.5]nonan-2-yl)piperazin-1-yl)-2-(2,6-dioxopiperidin-3-yl)isoindoline-1,3-dione] | 6.30 to 7.00 | 6.90 | ≤ 5.00
COc1cc(N2CCN(C3CCN(CC4CCN(c5ccc6c(c5)C(=O)N(C5CCC(=O)NC5=O)C6=O)CC4)CC3)CC2)c(-c2cnn(C)c2)cc1Nc1ncc(Br)c(Nc2ccc(-c3ccccc3)cc2P(C)(C)=O)n1 (stereo not drawn) [Compound 42, 5-(4-((4-(4-(4-((5-bromo-4-((3-(dimethylphosphoryl)-[1,1′-biphenyl]-4-yl)amino)pyrimidin-2-yl)amino)-5-methoxy-2-(1-methyl-1H-pyrazol-4-yl)phenyl)piperazin-1-yl)piperidin-1-yl)methyl)piperidin-1-yl)-2-(2,6-dioxopiperidin-3-yl)isoindoline-1,3-dione] | > 7.00 | 7.23 | ≤ 5.00
COc1cc(N2CCC(F)(CN3CCN(c4ccc5c(c4)C(=O)N(C4CCC(=O)NC4=O)C5=O)CC3)CC2)c(-c2cnn(C)c2)cc1Nc1ncc(Br)c(Nc2ccc(C3CC3)cc2P(C)(C)=O)n1 (stereo not drawn) [Compound 147, 5-(4-((1-(4-((5-bromo-4-((4-cyclopropyl-2-(dimethylphosphoryl)phenyl)amino)pyrimidin-2-yl)amino)-5-methoxy-2-(1-methyl-1H-pyrazol-4-yl)phenyl)-4-fluoropiperidin-4-yl)methyl)piperazin-1-yl)-2-(2,6-dioxopiperidin-3-yl)isoindoline-1,3-dione] | 6.30 to 7.00 | 6.99 | ≤ 5.00
COc1cc(N2CCC(CN3CCN(c4ccc(C(=O)NC5CCC(=O)NC5=O)nc4)CC3)CC2)c(-c2cnn(C)c2)cc1Nc1ncc(Cl)c(Nc2ccc(-c3ccccc3)cc2P(C)(C)=O)n1 (stereo not drawn) [Compound 66, 5-(4-((1-(4-((5-chloro-4-((3-(dimethylphosphoryl)-[1,1′-biphenyl]-4-yl)amino)pyrimidin-2-yl)amino)-5-methoxy-2-(1-methyl-1H-pyrazol-4-yl)phenyl)piperidin-4-yl)methyl)piperazin-1-yl)-N-(2,6-dioxopiperidin-3-yl)picolinamide] | > 7.00 | 7.00 | ≤ 5.00
COc1cc(N2CCC(C(=O)N3CCN(c4ccc5c(c4)C(=O)N(C4CCC(=O)NC4=O)C5=O)CC3)CC2)c(-c2cnn(C)c2)cc1Nc1ncc(Cl)c(Nc2ccc(C3CC3)cc2P(C)(C)=O)n1 (stereo not drawn) [Compound 143, 5-(4-(1-(4-((5-chloro-4-((4-cyclopropyl-2-(dimethylphosphoryl)phenyl)amino)pyrimidin-2-yl)amino)-5-methoxy-2-(1-methyl-1H-pyrazol-4-yl)phenyl)piperidine-4-carbonyl)piperazin-1-yl)-2-(2,6-dioxopiperidin-3-yl)isoindoline-1,3-dione] | 6.30 to 7.00 | 6.96 | ≤ 5.00
COc1cc(N2CCN(C[C@H]3CCN(c4ccc5c(c4)C(=O)N(C4CCC(=O)NC4=O)C5=O)C3)CC2)c(-c2cnn(C)c2)cc1Nc1ncc(Cl)c(Nc2ccc(-c3ccccc3)cc2P(C)(C)=O)n1 (stereo partly drawn) [Compound 118, 5-((R)-3-((4-(4-((5-chloro-4-((3-(dimethylphosphoryl)-[1,1′-biphenyl]-4-yl)amino)pyrimidin-2-yl)amino)-5-methoxy-2-(1-methyl-1H-pyrazol-4-yl)phenyl)piperazin-1-yl)methyl)pyrrolidin-1-yl)-2-(2,6-dioxopiperidin-3-yl)isoindoline-1,3-dione] | > 7.00 | 7.40 | ≤ 5.00
COc1cc(N2CCC(CN3CCN(c4ccc5c(c4)C(=O)N([C@H]4CCC(=O)NC4=O)C5=O)CC3)CC2)c(-c2cnn(C)c2)cc1Nc1ncc(Br)c(Nc2ccc(C3CC3)cc2P(C)(C)=O)n1 [Compound 170] | > 7.00 | 7.33 | ≤ 5.00
COc1cc(N2CCN(C3CCN(CC4CCN(c5cc6c(cc5F)C(=O)N(C5CCC(=O)NC5=O)C6=O)CC4)CC3)CC2)c(-c2cnn(C)c2)cc1Nc1ncc(Cl)c(Nc2ccc(-c3ccccc3)cc2P(C)(C)=O)n1 (stereo not drawn) [Compound 50, 5-(4-((4-(4-(4-((5-chloro-4-((3-(dimethylphosphoryl)-[1,1′-biphenyl]-4-yl)amino)pyrimidin-2-yl)amino)-5-methoxy-2-(1-methyl-1H-pyrazol-4-yl)phenyl)piperazin-1-yl)piperidin-1-yl)methyl)piperidin-1-yl)-2-(2,6-dioxopiperidin-3-yl)-6-fluoroisoindoline-1,3-dione] | 6.30 to 7.00 | 6.88 | ≤ 5.00
COc1cc(N2CCC(CN3CCN(c4ccc5c(c4)C(=O)N([C@H]4CCC(=O)NC4=O)C5=O)CC3)CC2)c(-c2cnn(C)c2)cc1Nc1ncc(Cl)c(Nc2ccc(C3CC3)cc2P(C)(C)=O)n1 [Compound 172] | > 7.00 | 7.31 | ≤ 5.00
